Test results from patent publication US20230357708A1, “BI[…] PARA-HYDROXYBENZOIC ACID FROM METHANOL AND METHANE” (The Board of Trustees of the Leland Stanford Junior …, priority 2020, published 2023).

Columns and labels:
[1] = tested on: M. buryatense 5GB1 (5G) strain; experiment: 4HBA toxicity test, streaks on plates with horizontal 4HBA-gradient; format: cell-based, Methylotuvimicrobium buryatense; conditions: background-strain streaks, 4HBA-gradient 0-10 mM, pH 8.9
Procedure: (§1) Fast growers were mutants with changed 4HBA-operon sequence. Fast-growing mutant #1 produced some 4HBA. […] The toxic conditions in turn favoured re-arrangement and/or point mutations of the plasmid. Streaks of the transconjugants on solid medium without methanol, grew comparatively well The solid medium was supplemented with nutrient broth, NMS2.1kan and MeOH. Toxicity tests with varying 4HBA concentrations was performed.

[2] = tested on: M. alcahphilum 20Z strain; experiment: as above; format: cell-based, Methylomicrobium alcaliphilum; conditions: background-strain streaks, 4HBA-gradient 0-10 mM, pH 8.9
Procedure: as §1

O=C(O)c1ccc(O)cc1 [4HBA, para-hydroxybenzoic acid]
effect of 4HBA on growth [1]: significant inhibitory effect | effect of 4HBA on growth compared with the M. alcahphilum 20Z strain [1]: more severely affected | effect of 4HBA on growth [2]: significant inhibitory effect
